Measurements published in patent US8106071B2, “Compositions for treating hyperproliferative vascular disorders and cancers” (Biobud Co., Ltd., priority 2007, dated 2012).

Assays:
[1] = system: NCI-H460 (lung cancer cell line); test: Cytotoxicity to tumor cells (WST-1), NCI-H460; format: cell-based
Protocol: (§1) To verify whether the compounds of this invention could be used as anticancer agents, their cytotoxicity against tumor cells were examined. NCI-H460 (lung cancer cell line, ATCC, USA) and MDA-MB 435S (breast cancer cell line, ATCC, USA) were used. The cancer cell lines were plated in 100 μl of DMEM (Dulbelcco's Modified Eagle Medium) containing 10% FBS (fetal bovine serum) in 96-well plates at 5×10^3 cells/well and cultured for 24 hr at 37° C. under 10% CO2 atmosphere. After change of medium with 100 μl of DMEM containing 5% FBS, cells were treated with the indicated concentration of the compounds in DMSO. The final concentration of DMSO in medium was adjusted to 1%. Following 48-hr treatment, medium was changed with a fresh 5% FBS DMEM and 10 μl/well of premix WST-1 (Takara, Japan) was added for analyzing cell proliferation, followed by 2-hr incubation. Using a ELISA microplate reader, the OD (optical density) values at 450 nm were measured. Compared with no-treatment control, the compounds of this invention were evaluated in terms of their cytotoxicity to cancer cell lines.

[2] = system: cancer cell lines; test: Cytotoxicity to tumor cells (WST-1), cancer cell lines collectively; format: cell-based; conditions: cancer cell lines (NCI-H460, MDA-MB 435S) not distinguished in the sentence; read-out: IC50 against cancer cell lines
Protocol: as §1

[3] = system: neointima thickening of balloon-injured left common carotid artery; test: Inhibition of restenosis using balloon injury of carotid artery; conditions: Sprague-Dawley rats, intraperitoneal, 2 weeks after balloon injury
Protocol: To examine restenosis inhibition effects of the present compounds, rat restenosis models were constructed using balloon injury of carotid artery.
Sprague-Dawley male rats with body weights of 350±30 g (12-14 week age, DaehanBiolink, Inc., Korea) were adapted to surrounding environments for one week. For each experiment, 7-10 rats were used. Rats were anesthetized by intraperitoneal administration of a mixture of ketamine (70 mg/kg) and xylazine hydrochloride (33 mg/kg) and their (left common carotid artery, CCA) and branches of internal carotid artery (ICA) and external carotid artery (ECA) were exposed by neck central compartment dissection. The proximal portion of the left common carotid artery and distal portion of the internal carotid artery were temporarily ligated with suture to block bloodstream, the distal portion of the external carotid artery was ligated. The wall of the external carotid artery between both sutures was partially dissected. 2F Fogarty balloon (Edwards Lifesciences) was inserted and the ligation of the left common carotid artery was then unraveled, followed by advancing the balloon along the direction of the ascending aorta. The balloon was inflated and pulled out at the extent that resistance was allowed at the terminal portion of the common carotid artery of the aortic arch, such that the lesion of the left common carotid artery was induced. […]

[4] = system: MDA-MB 435S (breast cancer cell line); test: Cytotoxicity to tumor cells (WST-1), MDA-MB 435S; format: cell-based; conditions: 48-hr treatment
Protocol: as §1

[5] = system: Human vascular smooth muscle cells (SMC); test: Inhibition of vascular smooth muscle cell proliferation (PDGF-stimulated, WST-1); format: cell-based; conditions: 5 ng/ml PDGF, 48-hr treatment
Protocol: Human vascular smooth muscle cells (SMC, Bio-whittaker, USA) were plated in 100 μl of DMEM (Dulbelcco's Modified Eagle Medium) containing 10% FBS (fetal bovine serum) in 96-well plates at 5×10^3 cells/well and cultured for 24 hr at 37° C. under 10% CO2 atmosphere. Afterwards, cells were starved in 100 μl of DMEM containing 0.2% FBS for 72 hr. Then, cells were incubated in 100 μl of DMEM containing 5% FBS supplemented with 5 ng/ml PDGF (platelet derived growth factor, ProSpec, Israel) and then treated with indicated concentrations of chemicals in DMSO synthesized in Examples. The final concentration of DMSO was adjusted to 1%. After 48-hr treatment, medium was changed with a fresh 5% FBS DMEM and 10 μl/well of premix WST-1 (Takara, Japan) was added for analyzing cell proliferation, followed by 2-hr incubation. Using a ELISA microplate reader, the OD (optical density) values at 450 nm were measured. Compared with no-treatment control, the compounds of this invention were evaluated in terms of their cell proliferation activity.

[6] = Homo sapiens, NCI-H460, 48-hr treatment

Compound | IC50 [1, 6] | IC50 [2] | neointima thickening compared with the non-balloon-injured right common carotid artery ([3]; histology (FIG. 1c vs FIG. 1a)) | reduced neointima thickening compared with the balloon-injured left common carotid artery ([3]; dispersed in polyoxyethylated castor oil, histology (FIG. 1c vs FIG. 1b)) | IC50 ([4]; Homo sapiens, MDA-MB-435S) | IC50 ([1]; 48-hr treatment) | IC50 [5] | IC50 [4]
O=C(Nc1ccc(Cl)cc1Cl)c1c(Nc2ccccc2)[nH]c2c(Cl)cc(Cl)cc2c1=O [BD030, 6,8-dichloro-4-oxo-2-phenylamino-1,4-dihydro-quinoline-3-carboxylic acid (2,4-dichloro-phenyl)-amide] | 1000 nM | < 1000 nM | slightly increased neointima thickening | about 80% | 300 nM |  |  | 
CC(=O)c1c(Nc2ccc(F)cc2Cl)[nH]c2c(Cl)ccc(C)c2c1=O [BD005] |  |  |  |  |  | 600 nM | 280 nM | 25000 nM
CC(=O)c1c(Nc2ccc(Br)cc2Cl)[nH]c2c([N+](=O)[O-])cc(Cl)cc2c1=O [BD002] |  |  |  |  |  | 400 nM |  | 300 nM
CC(=O)c1c(Nc2ccc(C)cc2)[nH]c2c([N+](=O)[O-])cccc2c1=O [BD006] |  |  |  |  |  | 1500 nM | 800 nM | 1100 nM
CC(=O)c1c(Nc2ccc(F)c(F)c2F)[nH]c2c(F)cc(F)cc2c1=O [BD004] |  |  |  |  |  | 850 nM |  | 900 nM
CC(=O)c1c(Nc2ccc(F)c(F)c2F)[nH]c2c(Cl)ccc(C)c2c1=O [BD003] |  |  |  |  |  | 400 nM |  | 600 nM
CC(=O)c1c(Nc2cccc(F)c2)[nH]c2c(Cl)ccc(F)c2c1=O [BD009] |  |  |  |  |  | 2600 nM | 625 nM | 5200 nM
CC(=O)c1c(Nc2ccc(Br)cc2)[nH]c2cc(Br)cc(Br)c2c1=O [BD001] |  |  |  |  |  | 1500 nM | 210 nM | 1800 nM
CC(=O)c1c(Nc2ccc(F)cc2)[nH]c2c(F)cc(F)cc2c1=O [BD007] |  |  |  |  |  | 1600 nM | 290 nM | 1100 nM
CCC(=O)c1c(Nc2ccc(F)c(F)c2)[nH]c2c(Cl)ccc([N+](=O)[O-])c2c1=O [BD034] |  |  |  |  |  | 3900 nM | 127 nM | 1600 nM
CC(=O)c1c(Nc2cccc(Cl)c2)[nH]c2c(C)cccc2c1=O [BD008] |  |  |  |  |  | 7200 nM | 1640 nM | 6400 nM
CCC(=O)c1c(Nc2cccc(Cl)c2Cl)[nH]c2c(Cl)ccc([N+](=O)[O-])c2c1=O [BD033] |  |  |  |  |  | 3200 nM | 137 nM | 4000 nM
O=C(Nc1ccc(Cl)cc1Cl)c1c(Nc2ccc(Cl)cc2Cl)[nH]c2c(Cl)cc(Cl)cc2c1=O [BD031, 6,8-dichloro-2-(2,4-dichloro-phenylamino)-4-oxo-1,4-dihydro-quinoline-3-carboxylic acid (2,4-dichloro-phenyl)-amide] | 210 nM | < 1000 nM |  |  | < 160 nM |  |  | 
CC(=O)c1c(Nc2ccc(Cl)cc2Cl)[nH]c2c(Cl)ccc([N+](=O)[O-])c2c1=O [BD010] |  |  |  |  |  | 25000 nM | 6500 nM | 12000 nM
CCC(=O)c1c(Nc2ccc(Cl)cc2F)[nH]c2c(Cl)ccc([N+](=O)[O-])c2c1=O [BD032] |  |  |  |  |  | 3300 nM | 140 nM | 3500 nM
